Source: US9963462B2 (priority 2015, dated 2018)

Columns and labels:
[1] = system: BH4 production in human peripheral blood mononuclear cells (PBMCs); experiment: hPBMC assay, inhibition of BH4 production by LC-MS (anti-CD3/anti-CD28 stimulated); format: cell-based; conditions: PBMC, read-out: hPBMC IC50
[2] = target: SNAP-hSPR (sepiapterin reductase, SPR) (Homo sapiens, UniProt P35270); experiment: biochemical; format: binding; conditions: terbium labelled SNAP-hSPR / SSZ labelled SNAP-EGFP; read-out: hTR-FRET IC50
Chain of SNAP-hSPR (sepiapterin reductase, SPR) (P35270 whole entry): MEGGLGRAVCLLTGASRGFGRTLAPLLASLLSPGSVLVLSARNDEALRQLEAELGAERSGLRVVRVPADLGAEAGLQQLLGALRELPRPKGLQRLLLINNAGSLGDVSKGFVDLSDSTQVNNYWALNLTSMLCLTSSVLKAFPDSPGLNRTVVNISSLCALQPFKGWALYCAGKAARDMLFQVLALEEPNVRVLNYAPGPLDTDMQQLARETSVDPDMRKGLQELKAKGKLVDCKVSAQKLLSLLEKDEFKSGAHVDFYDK

Structure (SMILES)	IC50 [1] [nM]	IC50 [2] [nM]
Cc1c(C(=O)N2CCC(c3noc(C(F)(F)F)n3)CC2)cnn1-c1nn2cccc2c(=O)[nH]1 [Q-1074]	22	1
C=C1C2CCCC1CN(C(=O)c1cnn(-c3nn4cccc4c(=O)[nH]3)c1C)C2 [Q-1126]	48	1
Cc1c(C(=O)N2CCN(c3ncc(-c4cccc(F)c4)o3)CC2)cnn1-c1nn2cccc2c(=O)[nH]1 [Q-1157]	490	4
Cc1c(C(=O)N2CCN(c3ncc(-c4ccnc(F)c4)s3)CC2)cnn1-c1nn2cccc2c(=O)[nH]1 [Q-1231]	62	3
Cc1c(C(=O)N2CCC3(CCCCC3=O)CC2)cnn1-c1nn2cccc2c(=O)[nH]1 [Q-1220]	22	1
C=C(c1cnn(C(C)C)c1NC(=O)c1cnn(-c2nn3cccc3c(=O)[nH]2)c1C)C(F)(F)F [Q-1143]	310	3
Cc1c(C(=O)N2CCN(S(=O)(=O)c3cccc4nsnc34)CC2)cnn1-c1nn2cccc2c(=O)[nH]1 [Q-1882]	92	2
Cc1c(C(=O)N2CCN(C3CCCC3(F)F)CC2)cnn1-c1nn2cccc2c(=O)[nH]1 (centres unmarked) [Q-1362]	43	1
CCC(C#N)C1=CCN(C(=O)c2cnn(-c3nc4c(c(=O)[nH]3)CCC4)c2C)CC1 (centres unmarked) [Q-1103]	100	1
Cc1c(C(=O)N2CCC(C(=O)C3CC3)CC2)cnn1-c1nn2cccc2c(=O)[nH]1 [Q-1208]	61	1
O=C(c1cn(-c2nn3cccc3c(=O)[nH]2)nn1)N1CCN(CC(F)(F)F)CC1 [Q-1223]	24	3
Cc1nn(-c2nn3cccc3c(=O)[nH]2)cc1C(=O)N1CCN(C2CCC2)CC1 [Q-1241]	20	2
Cc1c(C(=O)N2CCC3(CC2)CC3C(=O)N2CCOCC2)cnn1-c1nn2cccc2c(=O)[nH]1 (centres unmarked) [Q-1070]	200	2
Cc1c(C(=O)N2CCN(S(=O)(=O)c3ccccc3Cl)CC2)cnn1-c1nn2cccc2c(=O)[nH]1 [Q-1819]	91	1
Cc1c(C(=O)N2C3CCC2CC(C(F)(F)F)C3)cnn1-c1nn2cccc2c(=O)[nH]1 (centres unmarked) [Q-1122]	25	1
Cc1c(C(=O)N2CC(c3cccc(F)n3)C2)cnn1-c1nn2cccc2c(=O)[nH]1 [Q-1121]	70	1
Cc1c(C(=O)N2CCN(CC(F)(F)F)CC2)cnn1-c1nc2cc[nH]c2c(=O)[nH]1 [Q-1260]	81	30
Cc1c(C(=O)N2CCC(C(=O)N3CCCCC3)(C(F)(F)F)CC2)cnn1-c1nn2cccc2c(=O)[nH]1 [Q-1086]	84	1
Cc1c(C(=O)N2CCC(n3ccnc3C(F)(F)F)CC2)cnn1-c1nn2cccc2c(=O)[nH]1 [Q-1229]	100	2
Cc1c(C(=O)N2C3CCC2CN(C2CCC2)C3)cnn1-c1nn2cccc2c(=O)[nH]1 [Q-1114]	24	1
Cc1c(C(=O)N2CCN(c3ncc(-c4cccc(Cl)c4)o3)CC2)cnn1-c1nn2cccc2c(=O)[nH]1 [Q-1176]	280	9
Cc1c(C(=O)N2CCN(C3CC3C(F)(F)F)CC2)cnn1-c1nn2cccc2c(=O)[nH]1 (centres unmarked) [Q-1240]	35	1

Structure (SMILES)	IC50 [1] [nM]	IC50 [2] [nM]
Cc1c(C(=O)N2CCC(c3nc(-c4cccnc4)cs3)CC2)cnn1-c1nc2c(c(=O)[nH]1)CCC2 [Q-1084]	13	2
Cc1c(C(=O)N2CCN(S(=O)(=O)c3ccc(F)cc3Cl)CC2)cnn1-c1nn2cccc2c(=O)[nH]1 [Q-1876]	110	1
Cc1c(C(=O)N2CCN(c3nnc(C(F)(F)F)o3)CC2)cnn1-c1nn2cccc2c(=O)[nH]1 [Q-1145]	190	3
Cc1c(C(=O)N2CCN(S(=O)(=O)c3cccnc3)CC2)cnn1-c1nn2cccc2c(=O)[nH]1 [Q-1857]	150	1
Cc1c(C(=O)N2CC(S(=O)(=O)c3ccccc3)C2)cnn1-c1nn2cccc2c(=O)[nH]1 [Q-2017]	170	2
CC(=O)C1(c2ccccc2)CCN(C(=O)c2cnn(-c3nn4cccc4c(=O)[nH]3)c2C)CC1 [Q-1215]	17	1
Cc1c(C(=O)N2CCc3nc(C(F)(F)F)sc3C2)cnn1-c1nn2cccc2c(=O)[nH]1 [Q-1078]	36	5
Cc1c(C(=O)N2CCC(c3nc(C(N)=O)cs3)CC2)cnn1-c1nc2c(c(=O)[nH]1)CCC2 [Q-1091]	130	2
Cc1c(C(=O)N2CCC(c3cccc(F)n3)CC2)cnn1-c1nn2cccc2c(=O)[nH]1 [Q-1117]	20	1
Cc1c(C(=O)N2CCN(S(=O)(=O)c3cccc4cccnc34)CC2)cnn1-c1nn2cccc2c(=O)[nH]1 [Q-1859]	160	1
Cc1c(C(=O)N2CC3CC(C2)N3CCC(F)(F)F)cnn1-c1nn2cccc2c(=O)[nH]1 [Q-1194]	60	2
Cc1c(C(=O)N2C3CCC2CN(c2nccs2)C3)cnn1-c1nn2cccc2c(=O)[nH]1 [Q-1107]	58	1
Cc1c(C(=O)N2CCN(C3CC3F)CC2)cnn1-c1nn2cccc2c(=O)[nH]1 (centres unmarked) [Q-1249]	46	2
Cc1c(C(=O)N2CCC(c3nc(-c4ccncc4)cs3)CC2)cnn1-c1nn2cccc2c(=O)[nH]1 [Q-1101]	41	1
Cc1c(C(=O)N2CCN(c3ncc(-c4ccncc4)s3)CC2)cnn1-c1nn2cccc2c(=O)[nH]1 [Q-1235]	18	5
C=CCC(C#N)(CC=C)C1CCN(C(=O)c2cnn(-c3nn4cccc4c(=O)[nH]3)c2C)CC1 [Q-1110]	43	2
Cc1c(C(=O)N2CC3CCC(C2)C3C(F)(F)F)cnn1-c1nn2cccc2c(=O)[nH]1 (centres unmarked) [Q-1130]	57	1
Cc1c(C(=O)N2CCN(c3nc(-c4ccccc4C(F)(F)F)cs3)CC2)cnn1-c1nn2cccc2c(=O)[nH]1 [Q-1153]	630	8
Cc1c(C(=O)N2CCN(c3nc(-c4ccnc(Cl)c4)cs3)CC2)cnn1-c1nn2cccc2c(=O)[nH]1 [Q-1163]	68	2
Cc1c(C(=O)N2CCN(c3ncc(-c4ccc(Cl)nc4)o3)CC2)nnn1-c1nn2cccc2c(=O)[nH]1 [Q-1190]	59	10
Cc1c(C(=O)N2CCc3nc(-c4ccncc4)sc3C2)cnn1-c1nn2cccc2c(=O)[nH]1 [Q-1187]	190	4
Cc1c(C(=O)N2CCC(O)(C3(C#N)CC3)CC2)cnn1-c1nn2cccc2c(=O)[nH]1 [Q-1092]	330	1

Structure (SMILES)	IC50 [1] [nM]	IC50 [2] [nM]
COC(=O)c1sccc1S(=O)(=O)N1CCN(C(=O)c2cnn(-c3nn4cccc4c(=O)[nH]3)c2C)CC1 [Q-1875]	110	1
Cc1c(C(=O)N2CCC(C(C(F)F)C(F)(F)F)CC2)cnn1-c1nn2cccc2c(=O)[nH]1 (centres unmarked) [Q-1131]	27	1
Cc1c(C(=O)N2CC(N3CCC(F)(F)C3)C2)cnn1-c1nc2[nH]ccc2c(=O)[nH]1 [Q-1254]	870	100
Cc1c(C(=O)N2CCN(C3CCC3(F)F)CC2)cnn1-c1nn2cccc2c(=O)[nH]1 (centres unmarked) [Q-1120]	97	1
Cc1c(C(=O)N2CCN(CC3CCCO3)CC2)cnn1-c1nn2cccc2c(=O)[nH]1 (centres unmarked) [Q-2016]	45	1
Cc1c(C(=O)N2CCc3nc(-c4ccccn4)sc3C2)cnn1-c1nn2cccc2c(=O)[nH]1 [Q-1158]	130	2
Cc1c(C(=O)N2CCc3nc(-c4cccnc4)sc3C2)cnn1-c1nn2cccc2c(=O)[nH]1 [Q-1206]	70	1
Cc1c(C(=O)N2CCN(C3CCC3)CC2)nnn1-c1nn2cccc2c(=O)[nH]1 [Q-1191]	20	1
Cc1c(C(=O)N2CC3(C2)CC(F)(F)C3)cnn1-c1nc2cc[nH]c2c(=O)[nH]1 [Q-1259]	360	100
Cc1c(C(=O)N2CCC(C(=O)N3CCC3)(C(F)(F)F)CC2)cnn1-c1nn2cccc2c(=O)[nH]1 [Q-1085]	63	1
Cc1c(C(=O)N2CCN(c3ncc(-c4ccc(Cl)cc4)o3)CC2)cnn1-c1nn2cccc2c(=O)[nH]1 [Q-1135]	45	10
Cc1c(C(=O)N2CC3CCCC(C2)C3C(F)(F)F)cnn1-c1nn2cccc2c(=O)[nH]1 (centres unmarked) [Q-1123]	57	1
CCS(=O)(=O)N1CCN(C(=O)c2cnn(-c3nn4cccc4c(=O)[nH]3)c2C)CC1 [Q-1581]	170	4
Cc1c(C(=O)N2CCC(c3nc(-c4ccccc4)co3)CC2)cnn1-c1nc2c(c(=O)[nH]1)CCC2 [Q-1079]	74	3
Cc1c(C(=O)N2CCN(c3nc(-c4ccccc4F)cs3)CC2)cnn1-c1nn2cccc2c(=O)[nH]1 [Q-1165]	190	6
Cc1c(C(=O)N2CCCN(CCC(F)(F)F)CC2)cnn1-c1nn2cccc2c(=O)[nH]1 [Q-1183]	110	4
Cc1c(C(=O)N2CCN(c3ncc(-c4cccc(C(F)(F)F)c4)o3)CC2)cnn1-c1nn2cccc2c(=O)[nH]1 [Q-1159]	600	20
Cc1c(C(=O)N2CCN(c3nc(-c4cccc(C(F)(F)F)c4)cs3)CC2)cnn1-c1nn2cccc2c(=O)[nH]1 [Q-1173]	290	20
Cc1c(C(=O)N2CC3CCCC(C2)C3=CC(F)(F)F)cnn1-c1nn2cccc2c(=O)[nH]1 [Q-1174]	22	1
Cc1c(C(=O)N2CCN(S(=O)(=O)c3ccccc3F)CC2)cnn1-c1nn2cccc2c(=O)[nH]1 [Q-1799]	100	1
